In patent US9169254B2, “Spiroimidazolone derivative” (Chugai Seiyaku Kabushiki Kaisha, priority 2009, dated 2015):

target: T1, human PTH1 receptor (Homo sapiens, UniProt Q03431); assay: In vitro cAMP signal activity in HKRK-B7 cells (LLC-PK1 cells overexpressing the human PTH1 receptor); format: cell-based; settings: HKRK-B7 cells; compound at 1×10^−3 M; cAMP produced as percentage of that produced by hPTH(1-34) at 100 nM
T1 sequence (Q03431 27-593): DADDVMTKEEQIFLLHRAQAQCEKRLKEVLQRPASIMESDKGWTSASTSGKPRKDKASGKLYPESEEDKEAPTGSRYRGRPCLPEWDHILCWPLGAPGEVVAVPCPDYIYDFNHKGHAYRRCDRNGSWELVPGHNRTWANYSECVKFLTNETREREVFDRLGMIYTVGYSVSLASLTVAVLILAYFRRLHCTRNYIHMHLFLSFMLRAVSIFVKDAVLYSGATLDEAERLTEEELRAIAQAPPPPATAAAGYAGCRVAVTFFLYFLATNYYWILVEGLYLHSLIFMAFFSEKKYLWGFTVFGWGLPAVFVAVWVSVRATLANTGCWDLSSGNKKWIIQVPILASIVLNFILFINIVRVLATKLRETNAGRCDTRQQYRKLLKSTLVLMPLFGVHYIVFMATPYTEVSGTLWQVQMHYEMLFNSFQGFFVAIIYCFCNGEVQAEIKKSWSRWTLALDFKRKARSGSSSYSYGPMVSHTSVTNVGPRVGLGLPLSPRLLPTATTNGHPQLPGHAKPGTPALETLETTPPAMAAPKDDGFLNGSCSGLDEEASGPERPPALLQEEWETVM

Row | cAMP production activity (%) | Compound
1 | 92 | Cc1cc(N(C)C(N)=O)cc(C)c1/C=C/S(=O)(=O)N1CCC2(CC1)N=C(CCCCCCCCC1(C)COC1)NC2=O [Compound 1023, 1-[3,5-Dimethyl-4-((E)-2-{2-[8-(3-methyl-oxetan-3-yl)-octyl]-4-oxo-1,3,8-triaza-spiro[4.5]dec-1-ene-8-sulfonyl}-vinyl)-phenyl]-1-methyl-urea]
2 | 79 | Cc1cc(C2=NC3(CCN(S(=O)(=O)/C=C/c4c(C)cc(C(=O)N5CCC(C)(O)CC5)cc4C)CC3)C(=O)N2)ccc1OC(F)(F)F [Compound 1214, 8-{(E)-2-[4-(4-hydroxy-4-methyl-piperidine-1-carbonyl)-2,6-dimethyl-phenyl]-ethenesulfonyl}-2-(3-methyl-4-trifluoromethoxy-phenyl)-1,3,8-triaza-spiro[4.5]dec-1-en-4-one]
3 | 74 | Cc1cc(C(=O)N2CCC(C)(O)CC2)cc(C)c1/C=C/S(=O)(=O)N1CCC2(CC1)N=C(c1ccc(OC(C)(C)C(F)(F)F)c(C(F)(F)F)c1)NC2=O [Compound 1197, 8-{(E)-2-[4-(4-hydroxy-4-methyl-piperidine-1-carbonyl)-2,6-dimethyl-phenyl]-ethenesulfonyl}-2-[4-(2,2,2-trifluoro-1,1-dimethyl-ethoxy)-3-trifluoromethyl-phenyl]-1,3,8-triaza-spiro[4.5]dec-1-en-4-one]
4 | 59 | Cc1cc(C(=O)N2CCCC2)ccc1/C=C/S(=O)(=O)N1CCC2(CC1)N=C(c1cccc(C(F)(F)F)c1)NC2=O [Compound 212, 8-{(E)-2-[2-methyl-4-(pyrrolidine-1-carbonyl)-phenyl]-ethenesulfonyl}-2-(3-trifluoromethyl-phenyl)-1,3,8-triaza-spiro[4.5]dec-1-en-4-one]
5 | 87 | Cc1ccc(O)cc1/C=C/S(=O)(=O)N1CCC2(CC1)N=C(c1cccc(OC(F)(F)F)c1)NC2=O [Compound 227, 8-[(E)-2-(5-hydroxy-2-methyl-phenyl)-ethenesulfonyl]-2-(3-trifluoromethoxy-phenyl)-1,3,8-triaza-spiro[4.5]dec-1-en-4-one]
6 | 86 | Cc1cc(C2=NC3(CCN(S(=O)(=O)/C=C/c4c(C)cc(C(=O)N5CCC(C)(O)CC5)cc4C)CC3)C(=O)N2)ccc1C(F)(F)F [Compound 1193, 8-{(E)-2-[4-(4-hydroxy-4-methyl-piperidine-1-carbonyl)-2,6-dimethyl-phenyl]-ethenesulfonyl}-2-(3-methyl-4-trifluoromethyl-phenyl)-1,3,8-triaza-spiro[4.5]dec-1-en-4-one]
7 | 95 | Cc1cc(N(C)C(N)=O)cc(C)c1/C=C/S(=O)(=O)N1CCC2(CC1)N=C(C1CCC(CCC(F)(F)F)CC1)NC2=O (stereo not drawn) [Compound 723, 1-[3,5-Dimethyl-4-((E)-2-{4-oxo-2-[4-(3,3,3-trifluoro-propyl)-cyclohexyl]-1,3,8-triaza-spiro[4.5]dec-1-ene-8-sulfonyl}-vinyl)-phenyl]-1-methyl-urea]
8 | 90 | O=C1NC(c2cccc(C(F)(F)F)c2)=NC12CCN(S(=O)(=O)/C=C/c1cccc3c1ccn3C[C@H](O)CO)CC2 [Compound 524, 8-{(E)-2-[1-((S)-2,3-dihydroxy-propyl)-1H-indol-4-yl]-ethenesulfonyl}-2-(3-trifluoromethyl-phenyl)-1,3,8-triaza-spiro[4.5]dec-1-en-4-one]
9 | 73 | Cc1cc(C(=O)N(C)C)ccc1CCS(=O)(=O)N1CCC2(CC1)N=C(c1ccc(OC(F)F)cc1)NC2=O [Compound 118, 4-{2-[2-(4-difluoromethoxy-phenyl)-4-oxo-1,3,8-triaza-spiro[4.5]dec-1-ene-8-sulfonyl]-ethyl}-3,N,N-trimethyl-benzamide]
10 | 113 | Cc1cc(N(C)C(N)=O)cc(C)c1/C=C/S(=O)(=O)N1CCC2(CC1)N=C(CCCCCCCCCF)NC2=O [Compound 1325, 1-(4-{(E)-2-[2-(9-Fluoro-nonyl)-4-oxo-1,3,8-triaza-spiro[4.5]dec-1-ene-8-sulfonyl]-vinyl}-3,5-dimethyl-phenyl)-1-methyl-urea]
11 | 96 | Cc1cc(C(=O)N2CCC(O)CC2)c(F)cc1CCS(=O)(=O)N1CCC2(CC1)N=C(c1cccc(C(F)(F)F)c1)NC2=O [Compound 419, 8-{2-[5-fluoro-4-(4-hydroxy-piperidine-1-carbonyl)-2-methyl-phenyl]-ethanesulfonyl}-2-(3-trifluoromethyl-phenyl)-1,3,8-triaza-spiro[4.5]dec-1-en-4-one]
12 | 124 | CC(=O)N(C[C@H](O)CO)c1cc(C)c(/C=C/S(=O)(=O)N2CCC3(CC2)N=C(CCCCCCCCC(F)(F)F)NC3=O)c(C)c1 [Compound 707, N—((S)-2,3-Dihydroxy-propyl)-N-(3,5-dimethyl-4-{(E)-2-[4-oxo-2-(9,9,9-trifluoro-nonyl)-1,3,8-triaza-spiro[4.5]dec-1-ene-8-sulfonyl]-vinyl}-phenyl)-acetamide]
13 | 43 | Cc1cc(N2C[C@H](CO)OC2=O)ccc1/C=C/S(=O)(=O)N1CCC2(CC1)N=C(c1cccc(C(F)(F)F)c1)NC2=O [Compound 222, 8-{(E)-2-[4-((R)-5-hydroxymethyl-2-oxo-oxazolidin-3-yl)-2-methyl-phenyl]-ethenesulfonyl}-2-(3-trifluoromethyl-phenyl)-1,3,8-triaza-spiro[4.5]dec-1-en-4-one]

The remaining lines, values behind:

Row | Compound | cAMP production activity (%)
14 | CN1CCN(C(=O)NCc2ccc(/C=C/S(=O)(=O)N3CCC4(CC3)N=C(C3CCCCC3)NC4=O)cc2)CC1 [Compound 567, 4-methyl-piperazine-1-carboxylic acid 4-[(E)-2-(2-cyclohexyl-4-oxo-1,3,8-triaza-spiro[4.5]dec-1-ene-8-sulfonyl)-vinyl]-benzylamide] | 24
15 | O=C1NC(C2CCCCCC2)=NC12CCN(S(=O)(=O)/C=C/c1cccc3c1ccn3C[C@H](O)CO)CC2 [Compound 240, 2-Cycloheptyl-8-{(E)-2-[1-((S)-2,3-dihydroxy-propyl)-1H-indol-4-yl]-ethenesulfonyl}-1,3,8-triaza-spiro[4.5]dec-1-en-4-one] | 49
16 | Cc1cc(OCC2(C)COC2)ccc1/C=C/S(=O)(=O)N1CCC2(CC1)N=C(C1CCCCC1)NC2=O [Compound 739, 2-Cyclohexyl-8-{(E)-2-[2-methyl-4-(3-methyl-oxetan-3-ylmethoxy)-phenyl]-ethenesulfonyl}-1,3,8-triaza-spiro[4.5]dec-1-en-4-one] | 47
17 | CC(C)n1ccc2c(CCS(=O)(=O)N3CCC4(CC3)N=C(C3CCCCC3)NC4=O)cccc21 [Compound 650, 2-cyclohexyl-8-[2-(1-isopropyl-1H-indol-4-yl)-ethanesulfonyl]-1,3,8-triaza-spiro[4.5]dec-1-en-4-one] | 55
18 | O=C1NC(C2CCCCC2)=NC12CCN(S(=O)(=O)c1cc3ccccc3s1)CC2 [Compound 54, 8-(benzo[b]thiophene-2-sulfonyl)-2-cyclohexyl-1,3,8-triaza-spiro[4.5]dec-1-en-4-one] | 35
19 | CC(=O)Nc1ccc(CCS(=O)(=O)N2CCC3(CC2)N=C(C2CCC(C(F)F)CC2)NC3=O)c(C)c1 (stereo not drawn) [Compound 1075, N-(4-{2-[2-(4-difluoromethyl-cyclohexyl)-4-oxo-1,3,8-triaza-spiro[4.5]dec-1-ene-8-sulfonyl]-ethyl}-3-methyl-phenyl)-acetamide] | 69
20 | Cc1cc(C(=O)N(C)N(C)C)cc(C)c1CCS(=O)(=O)N1CCC2(CC1)N=C(C1CCC(CCC(F)(F)F)CC1)NC2=O (stereo not drawn) [Compound 787, 3,5-dimethyl-4-(2-{4-oxo-2-[4-(3,3,3-trifluoro-propyl)-cyclohexyl]-1,3,8-triaza-spiro[4.5]dec-1-ene-8-sulfonyl}-ethyl)-benzoic acid trimethylhydrazide] | 81
21 | O=C1NC(c2ccncc2)=NC12CCN(S(=O)(=O)c1cccc(Cl)c1)CC2 [Compound 2, 8-(3-chloro-benzenesulfonyl)-2-pyridin-4-yl-1,3,8-triaza-spiro[4.5]dec-1-en-4-one] | 1.0
22 | NCc1ccc(/C=C/S(=O)(=O)N2CCC3(CC2)N=C(C2CCCCC2)NC3=O)cc1 [Compound 687, 8-[(E)-2-(4-aminomethyl-phenyl)-ethenesulfonyl]-2-cyclohexyl-1,3,8-triaza-spiro[4.5]dec-1-en-4-one] | 25
23 | Cc1cc(CN(CCO)C(=O)OC(C)(C)C)ccc1CCS(=O)(=O)N1CCC2(CC1)N=C(C1CCCCC1)NC2=O [Compound 681, {4-[2-(2-Cyclohexyl-4-oxo-1,3,8-triaza-spiro[4.5]dec-1-ene-8-sulfonyl)-ethyl]-3-methyl-benzyl}-(2-hydroxy-ethyl)-carbamic acid tert-butyl ester] | 55
24 | Cc1cc(C(=O)N(C)C)ccc1CCS(=O)(=O)N1CCC2(CC1)N=C(c1cccc3c1OC(F)(F)O3)NC2=O [Compound 92, 4-{2-[2-(2,2-difluoro-benzo[1,3]dioxol-4-yl)-4-oxo-1,3,8-triaza-spiro[4.5]dec-1-ene-8-sulfonyl]-ethyl}-3,N,N-trimethyl-benzamide] | 97
